Where two headings read alike, the source gives them in different places.

One test addresses T1, HDAC7 (Homo sapiens, UniProt Q8WUI4).
T1 sequence (Q8WUI4 1-952): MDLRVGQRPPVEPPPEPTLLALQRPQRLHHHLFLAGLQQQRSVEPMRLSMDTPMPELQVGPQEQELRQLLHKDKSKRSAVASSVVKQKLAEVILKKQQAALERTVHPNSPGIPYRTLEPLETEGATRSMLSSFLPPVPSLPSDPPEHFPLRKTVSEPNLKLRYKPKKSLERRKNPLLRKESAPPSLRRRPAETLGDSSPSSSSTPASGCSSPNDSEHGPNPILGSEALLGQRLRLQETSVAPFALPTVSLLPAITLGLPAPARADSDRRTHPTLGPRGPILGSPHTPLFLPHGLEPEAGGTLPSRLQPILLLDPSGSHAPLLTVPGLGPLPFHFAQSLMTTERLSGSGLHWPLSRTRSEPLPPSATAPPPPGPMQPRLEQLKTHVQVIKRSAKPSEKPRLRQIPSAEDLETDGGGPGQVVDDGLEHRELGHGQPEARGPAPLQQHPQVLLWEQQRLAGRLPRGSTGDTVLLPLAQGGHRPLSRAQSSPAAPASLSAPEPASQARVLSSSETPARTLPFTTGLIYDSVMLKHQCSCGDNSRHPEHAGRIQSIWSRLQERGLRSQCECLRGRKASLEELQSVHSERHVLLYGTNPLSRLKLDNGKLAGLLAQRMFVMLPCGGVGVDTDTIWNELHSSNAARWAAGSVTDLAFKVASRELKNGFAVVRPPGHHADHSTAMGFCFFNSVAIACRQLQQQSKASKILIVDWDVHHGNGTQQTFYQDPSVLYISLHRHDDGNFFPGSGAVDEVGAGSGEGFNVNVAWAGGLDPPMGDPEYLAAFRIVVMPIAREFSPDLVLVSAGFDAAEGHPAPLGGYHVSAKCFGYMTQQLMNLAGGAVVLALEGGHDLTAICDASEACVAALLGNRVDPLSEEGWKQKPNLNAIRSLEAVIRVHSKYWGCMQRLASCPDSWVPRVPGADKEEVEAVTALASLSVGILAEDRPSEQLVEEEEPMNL
Kind of test: HDAC biochemical activity measurement (fluorescent substrate deacetylation).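 Further: fluorogenic deacetylation assay using acetyl-lysine substrate at 20 µM, enzyme and compound incubated 30 min at 37 °C, then developer added, fluorescence read at 360/460 nm.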 To be noted: HDAC7; 37° C. 30 minutes.

In test [1] the test system is DU145 (human prostate cancer cells). Description: MTT cancer cell growth inhibition. The format is cell-based. To be noted: Homo sapiens, DU-145, 72 h, MTT, 72 hours incubation, read-out: GI50 Du1. A digest of the protocol:
(§1)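 Using a 72 h MTT format, triplicate wells of 1500 cells received compound concentrations from 10^−5 to 10^−10 M. Formazan was read at 570 nm after DMSO dissolution, and GI50 was derived from viability.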

Test [2] concerns MOLT-4 (human acute lymphoblastic leukemia cells). Kind of test: MTT cancer cell growth inhibition. The note with it: Homo sapiens, MOLT-4, 72 h, MTT, 72 hours incubation, read-out: GI50 Mol. In kind it is cell-based. Put shortly:
as §1

The test system of test [3] is KBM-5 (human chronic myelogenous leukemia). Kind of test: MTT cancer cell growth inhibition. In kind it is cell-based. To be noted: Homo sapiens, KBM5, 72 h, MTT, 72 hours incubation, KBM-5 cells; read-out: GI50 KBM-5. A digest of the protocol:
as §1

Test [4] relates to Hela (human cervical cancer cells). Description: MTT cancer cell growth inhibition. The format is cell-based. To be noted: Homo sapiens, HeLa, 72 h, MTT, 72 hours incubation, read-out: GI50 Hela. A digest of the protocol: as §1
For test [5], the system named is KBM5-T315I (human chronic myelogenous leukemia). Description: MTT cancer cell growth inhibition. To be noted: Homo sapiens, 72 h, MTT, 72 hours incubation, KBM5-T315I cells; read-out: GI50 KBM5-T315I. In kind it is cell-based. A digest of the protocol: as §1
The test system of test [6] is HCC827 (human non-small cell lung cancer cells). Kind of test: MTT cancer cell growth inhibition. In kind it is cell-based. To be noted: Homo sapiens, HCC827, 72 h, MTT, 72 hours incubation, HCC827 cells; read-out: GI50 HCC827. A digest of the protocol:
as §1

For test [7], the system named is U937 (human leukemia cells). Kind of test: MTT cancer cell growth inhibition. The format is cell-based. The note with it: Homo sapiens, U-937, 72 h, MTT, 72 hours incubation, read-out: GI50 U93. Put shortly:
as §1

Test [8] relates to BGC-823 (human gastric cancer cells). Kind of test: MTT cancer cell growth inhibition. The note with it: Homo sapiens, BGC-823, 72 h, MTT, 72 hours incubation, read-out: GI50 BG. The format is cell-based. Put shortly: as §1
Test [9] concerns A549 (human lung cancer cells). Description: MTT cancer cell growth inhibition. In kind it is cell-based. The note with it: Homo sapiens, A549, 72 h, MTT, 72 hours incubation, read-out: GI50 A54. A digest of the protocol:
as §1

For test [10], the system named is Bel-7402 (human hepatoma cells). Description: MTT cancer cell growth inhibition. The format is cell-based. The note with it: Homo sapiens, Bel-7402, 72 h, MTT, 72 hours incubation, Bel-7402 cells; read-out: GI50 Bel-7402. Put shortly:
as §1

For test [11], the system named is H1975 (non-small cell lung adenocarcinoma). Description: MTT cancer cell growth inhibition. To be noted: Homo sapiens, NCI-H1975, 72 h, MTT, 72 hours incubation, H1975 cells; read-out: GI50 H1975. In kind it is cell-based. Put shortly:
as §1

The test system of test [12] is SGC-7901 (human gastric cancer cells). Kind of test: MTT cancer cell growth inhibition. The format is cell-based. The note with it: Homo sapiens, SGC-7901, 72 h, MTT, 72 hours incubation, SGC-7901 cells; read-out: GI50 SGC-7901. A digest of the protocol:
as §1

The subject of test [13] is lncap (prostate cancer cells). Kind of test: MTT cancer cell growth inhibition. In kind it is cell-based. The note with it: Homo sapiens, LNCaP, 72 h, MTT, 72 hours incubation, read-out: GI50 lnca. Put shortly:
as §1

Test [14] concerns N-87 (human gastric cancer cells). Description: MTT cancer cell growth inhibition. The format is cell-based. The note with it: Homo sapiens, 72 h, MTT, 72 hours incubation, N-87 cells; read-out: GI50 N-87. A digest of the protocol:
as §1

Test [15] relates to MDA-MB-231 (breast cancer cells). Description: MTT cancer cell growth inhibition. In kind it is cell-based. To be noted: Homo sapiens, MDA-MB-231, 72 h, read-out: GI50 MDA-MB-231, MTT, 72 hours incubation, MDA-MB-231 cells. Put shortly: as §1
Test [16] concerns MCF-7 (human breast cancer cells). Kind of test: MTT cancer cell growth inhibition. In kind it is cell-based. To be noted: Homo sapiens, MCF7, 72 h, 72 hours incubation, read-out: GI50 MCF. A digest of the protocol:
as §1

Test [17] deals with HT1080 (human fibrosarcoma cells). Description: MTT cancer cell growth inhibition. In kind it is cell-based. The note with it: Homo sapiens, HT-1080, 72 h, MTT, 72 hours incubation, read-out: GI50 HT1. Put shortly:
as §1

Test [18] relates to K562 (human leukemia cells). Kind of test: MTT cancer cell growth inhibition. The format is cell-based. To be noted: Homo sapiens, K562, 72 h, MTT, 72 hours incubation, K562 cells; read-out: GI50 K562. A digest of the protocol:
as §1

Test [19] relates to PANC-1 (Pac-1, human pancreatic cancer cells). Description: MTT cancer cell growth inhibition. In kind it is cell-based. The note with it: Homo sapiens, PANC-1, 72 h, MTT, 72 hours incubation, read-out: GI50 PAN. A digest of the protocol:
as §1

Test [20] relates to Huh-7 (human hepatoma cells). Description: MTT cancer cell growth inhibition. In kind it is cell-based. The note with it: Homo sapiens, Huh-7, 72 h, MTT, 72 hours incubation, Huh-7 cells; read-out: GI50 Huh-7. A digest of the protocol: as §1

For `C/C=C1\NC(=O)c2ccc(SC)c(n2)CNC(=O)C[C@@H](/C=C/CCSC(C)=O)OC(=O)[C@H](Cc2ccc(O)cc2)NC1=O` [Compound 203], the “IC50 HDAC7” value against HDAC7 is listed as “no activity”. Moreover, the GI50 (in general, the concentration giving 50% growth inhibition) worked out at 40 nM in [1] (DU145 cells); 30 nM in test [2] (MOLT-4 cells); 53 nM in test [3]; 30 nM in test [4] (Hela cells); 26 nM in test [5]; 23 nM in test [6]. Also, the GI50 in test [7] (U937 cells) worked out at 20 nM; in [8] (BGC-823 cells), 80 nM; in [9] (A549 cells), 30 nM; in test [10], 23 nM; in [11], 65 nM; in [12] it was 43 nM. For the same compound, the GI50 in [13] (lncap cells) worked out at 30 nM; in test [14], 77 nM; in test [15] it was 73 nM; in [16] (MCF-7 cells) it was 40 nM; in test [17] (HT1080 cells), 60 nM; in test [18] it was 35 nM. For the same compound, the GI50 amounted to 30 nM in test [19] (PANC-1 cells) and 22 nM in test [20].
Consider `C/C=C1\NC(=O)c2nc(ccc2SC)CNC(=O)C[C@@H](/C=C/CCSC(=O)CCCCCCC)OC(=O)[C@H](C)NC1=O` [Compound 180], for which, at HDAC7, the “IC50 HDAC7” value is recorded as “no activity”. Also, the GI50 was 60 nM in test [1] (DU145 cells); 50 nM in test [2] (MOLT-4 cells); 29 nM in test [3]; 100 nM in test [4] (Hela cells); 57 nM in [5]; 13 nM in test [6]. The GI50 stood at 70 nM in [7] (U937 cells); 50 nM in test [8] (BGC-823 cells); 30 nM in test [9] (A549 cells); 48 nM in test [10]; 97 nM in [11]; 35 nM in [12]. Also, the 50% growth inhibitory concentration (GI50) stood at 20 nM in test [13] (lncap cells); 62 nM in [14]; 56 nM in test [15]; 20 nM in test [16] (MCF-7 cells); 50 nM in test [17] (HT1080 cells); 49 nM in test [18]. Moreover, the results for the GI50 in [19] (PANC-1 cells) and in [20] were 30 nM and 17 nM, respectively.
Consider `C/C=C1\NC(=O)c2ccc(F)c(n2)CNC(=O)C[C@@H](/C=C/CCSC(=O)CCCCCCC)OC(=O)[C@H](C(C)C)NC1=O` [Example 32], for which the “IC50 HDAC7” value against HDAC7 is listed as “no activity”. The GI50 in [1] was 30 nM; in test [2], 30 nM; in test [3] it was 71 nM; in test [4], 70 nM; in test [5], 58 nM; in [6] it was 67 nM. Moreover, the GI50 is 50 nM in test [7]; 60 nM in test [8]; 40 nM in test [9]; 67 nM in test [10]; 53 nM in [11]; 45 nM in test [12]. Also, the 50% growth inhibitory concentration (GI50) in [13] was 30 nM; in test [14], 69 nM; in test [15] it was 38 nM; in [16] it was 50 nM; in [17], 60 nM; in test [18], 34 nM. Also, the GI50 amounted to 60 nM in test [19] and 38 nM in test [20].
For the compound `C=C1NC(=O)c2ccc(F)c(n2)CNC(=O)C[C@@H](/C=C/CCS)OC(=O)[C@H](C(C)C)NC1=O` [Compound 134], the “IC50 HDAC7” value against HDAC7 is listed as “no activity”. Besides, the concentration for 50% growth inhibition (GI50) in [1] is 50 nM; in test [2], 50 nM; in test [3], 31 nM; in test [4] it was 40 nM; in test [5] it was 61 nM; in test [6] it was 35 nM. Further, the GI50 in test [7] came out at 50 nM; in test [8] it was 170 nM; in test [9], 30 nM; in test [10] it was 29 nM; in test [11] it was 54 nM; in test [12], 27 nM. In addition, the GI50 in [13] was 100 nM; in test [14], 41 nM; in test [15], 63 nM; in test [16], 80 nM; in test [17], 70 nM; in test [18], 38 nM. Moreover, the figures for the GI50 in [19] and in [20] were 130 nM and 92 nM, respectively.
